Results published in patent US10350240B2, “Lanthanum carbonate hydroxide, lanthanum oxycarbonate and methods of their manufacture and use” (Spectrum Pharmaceuticals, Inc., priority 2010, dated 2019).

Tests used:
[1] = Bulk density; format: physicochemical; settings: Renazorb-013 (LCH), second block
Protocol: Bulk density in accordance with the invention can be determined by standard methods.
Graduated Cylinder Tare Weight was determined to be 225 g. 75 grams of sample was sieved into the graduated cylinder. The Gross Weight was determined to be 299.4 g. The volume of this sample was measured to be 141 mL. Thus, the Bulk Density of the powder is: Bulk Density (g/cc)=(299.4−225)/141=74.4/141=0.5277 g/cc Rounding this value to two decimal places gives a final reported value of 0.53 g/cc. 9.2 RSD=(R1−R2)×100/R1 where: RSD=Relative Standard Deviation (%) R1 & R2=Result of individual repeat (g/cc) 9.3 SR=R×100/V where: SR=Standard Recovery (%) R=Result for Reference Standard (g/cc) V=Historical average for standard (g/cc)

[2] = BET surface area; format: physicochemical; settings: for Surface Area, BET Surface area (m^2/g): nitrogen adsorbate; for BET surface area of the material tested: material tested in FIG. 10
Excerpt: (§1) By “relatively greater” it is meant that if the processes of the '782 patent and those of the present invention were run under generally identical conditions but with, for example, ammonium carbonate or bicarbonate used instead of sodium carbonate, the surface area, as measured by BET or otherwise, of the LCH or lanthanum oxycarbonates of the present invention would be even higher than that resulting from the practice of the '782 patent. The ammonium carbonate process of the present invention should yield BET surface areas (SA) in the 1 to 100 m^2/g range for LCH. […] To this end, as used herein “relatively greater BET surface area” refers to the greater BET surface area of the LDOC compound of the present invention when compared to the respective compound in U.S. Pat. No. 7,588,782 when made using similar ingredients, and under similar conditions but using the process described in that patent. As noted above, both processes are capable of producing very fine particles/high surface area. Again without wishing to be bound by any particular theory of operation, it may be that the greater porosity of the materials resulting from the present invention may effectively increase the overall surface area (or more reactive surfaces) allowing for, inter alia, improved binding kinetics. This is predicated on the porosity of individual or primary particles, not aggregates. Thus, it is believed that the primary particles of the invention provide relatively greater porosity than would be measured for particles made in accordance with the '782 patent. […] Furthermore, “porosity” as used herein means cumulative adsorption pore volume determined using a static pressure surface area analyzer with nitrogen as the adsorbate and calculating the pore size by The Barrett, Joyner, and Halenda (BJH) method (Barrett E. P., Loyner L. G. and Halenda P. P., The determination of pore volume and area distributions in porous substances. I. Computations from nitrogen isotherms, J. Am. Chem. Soc. 73 (1951) pp. 373-380).
As contemplated herein, BET surface area of the lanthanum compounds disclosed herein may be determined as provided in U.S. Pat. No. 7,588,782.

[3] = Porosity (BJH pore volume, pore size; nitrogen adsorption, Micromeritics TriStar 3000); format: physicochemical; settings: for Pore Size, Adsorption pore diameter (nm): BJH adsorption; for Pore volume, Adsorption (cumulative) (cm^3/g) / Surface Area, Adsorption (cumulative) (m^2/g): BJH adsorption cumulative; for Pore Size, Desorption pore diameter (nm): BJH desorption; for Pore volume, Desorption (cumulative) (cm^3/g) / Surface Area, Desorption (cumulative) (m^2/g): BJH desorption cumulative; for Pore volume, Total-<6.4182 nM (cm^3/g): pores <6.4182 nM
Excerpt: as §1
“Pore volume” as used herein refers to the cumulative adsorption pore volume. In one embodiment, the cumulative adsorption pore volume of the LDOC of the present invention is at least 0.015 cm^3/g. In another embodiment, it is at least 0.020 cm^3/g.
The porosity of the LDOC compound referred to herein as RZB-014 was analyzed and compared to that of the LDH and LDOC compounds of the '782 patent discussed above on a Micromeritics TriStar 3000 static pressure surface area analyzer using nitrogen as the adsorbate. The Barrett, Joyner, and Halenda (BJH) method was used to calculate pore size. This method uses the Kelvin model of pore filling and applies only to the mesopore (internal width between approximately 2 and 50 nm) and small macropore size range (internal width between 50 nm and approximately 300 nm).

[4] = Phosphate binding kinetics at constant pH, ICP-OES (FIG. 10); settings: for phosphate binding at a pH of 3 or below: comparison of both LDOC materials; for amount of phosphate bound in 60 minutes: pH of about 6.5, 60 minutes, FIG. 10
Excerpt: FIG. 10 provides a graphical representation of the binding kinetics of LCH and a lanthanum oxycarbonate in accordance with the '782 patent (RZB-011, RZB-012), and LCH/La2O2CO3 produced in accordance with the present invention (RZB-013 and RZB-014) at 10, 20, 30, 40, […]
It is preferred that the amount of polymorph 037-0804 exceeds that of any other polymorph by weight. In one embodiment, the amount of polymorph 037-0804 is more than 50% of all polymorphs present and, in another embodiment, at least 90% of the polymorphs present of LDOC is La2O2CO3. In another embodiment, polymorph 037-0804 (La2O2CO3) is present in an amount of at least 95% by weight relative to other polymorphs and in still another embodiment, at least 99% by weight. It has also been determined that the phosphate binding kinetic of LDOC resulting from the present invention versus LDOC resulting from the process of the '782 patent are different as well. […] In one embodiment, therefore, the lanthanum oxycarbonate and, in another embodiment, the LDOC of the inventions have a binding kinetic at pH 6.5 at 60 minutes, of at least 150 mg PO4 per gram of lanthanum oxycarbonate/LDOC. In another embodiment, the lanthanum oxycarbonate and LDOC of the invention have a binding kinetic of at least about 180 mg PO4 per gram compound and in still a further embodiment, at least about 200 mg PO4 per gram compound. The BET surface area of the material tested was 6-7 m^2/g for RZB012 (lanthanum oxycarbonate in accordance with the '782 patent) and was about 33.9 for La2O2CO3 in accordance with the invention. Moreover, it is believed that the porosity, bulk density and flow characteristics of LDOC made in accordance with the present invention surpassed those made in accordance with the teachings of the '782 patent.
Phosphate binding kinetics and binding capacity as illustrated in FIG. 10 as described herein (particularly with regard to RZB-012) can be measured as follows:
Stock phosphate solution (0.00527 mol PO43—per Liter—500 mg PO43—per Liter)
3. Using a graduated cylinder measure out 1.0 L of the stock phosphate solution
4. Add the phosphate solution to a 1.5 L Pyrex beaker. The beaker should be sufficiently large to contain the phosphate solution and allow for a 30% volume increase
5. Run at ambient […] or 37° C. as indicated in the analytical request. If 37° C. is requested place the 1.5 L beaker containing the 1.0 L of test solution on a temperature controlled hot plate. Set temperature to 37° C. […] 6. Stir the solution constantly using an electric stirrer equipped with an impeller. Stir rate should be […] (verify with tachometer). 7. Using a 10 ml syringe remove 5 mls of solution and dispense it into a labeled sample tube. This is the T=0 sample 8. […]

[5] = at 10 minutes, pH 3, FIG. 20 of the '782 patent; cited from earlier work

O=C([O-])[O-].[La+3].[OH-] [Batch 101008, lanthanum carbonate hydroxide]
Bulk Density [1]: 0.15 g/cc
Surface Area ([2]; Renazorb-013 (LCH), second block of experiments): 14.3 m^2/g

O=C([O-])[O-].[La+3].[OH-] [RZB-011, lanthanum carbonate hydroxide]
pore diameter comparison [3]: not much difference in the values of pore diameter

O=C([O-])[O-].[La+3].[La+3].[O-2].[O-2] [RZB-14 (264314)]
Pore Size, Average pore width (nm) [3]: 3.404 nm
Pore Size, Adsorption pore diameter (nm) [3]: 5.7595 nm
Pore volume, Adsorption (cumulative) (cm^3/g) [3]: 0.0499 cm^3/g
Surface Area, Adsorption (cumulative) (m^2/g) [3]: 34.6533 m^2/g
Pore Size, Desorption pore diameter (nm) [3]: 6.0183 nm
Pore volume, Desorption (cumulative) (cm^3/g) [3]: 0.05346 cm^3/g
Surface Area, Desorption (cumulative) (m^2/g) [3]: 35.5324 m^2/g
Pore volume, Total-<6.4182 nM (cm^3/g) [3]: 0.02724 cm^3/g
Surface Area, BET Surface area (m^2/g) [2]: 32.0039 m^2/g

O=C([O-])[O-].[La+3].[La+3].[O-2].[O-2] [RZB-14 (264317)]
Pore Size, Average pore width (nm) [3]: 4.699 nm
Pore Size, Adsorption pore diameter (nm) [3]: 5.5584 nm
Pore volume, Adsorption (cumulative) (cm^3/g) [3]: 0.03991 cm^3/g
Surface Area, Adsorption (cumulative) (m^2/g) [3]: 28.7342 m^2/g
Pore Size, Desorption pore diameter (nm) [3]: 4.8008 nm
Pore volume, Desorption (cumulative) (cm^3/g) [3]: 0.04068 cm^3/g
Surface Area, Desorption (cumulative) (m^2/g) [3]: 33.8946 m^2/g
Pore volume, Total-<6.4182 nM (cm^3/g) [3]: 0.02973 cm^3/g
Surface Area, BET Surface area (m^2/g) [2]: 25.3032 m^2/g

O=C([O-])[O-].[La+3].[La+3].[O-2].[O-2] [RZB-014, Lanthanum dioxycarbonate]
phosphate binding at a pH of 3 or below [4]: about the same
amount of phosphate bound in 60 minutes [4]: approximately 240 mg PO4 bound per gram of compound
pore diameter comparison [3]: not much difference in the values of pore diameter
pore volume compared with RZB-12 and RZB-11 ([3]; both lots of RZB-14): much higher pore volumes than RZB-12 and slightly bigger pore volume than RZB-11
surface area compared with RZB-11 & 12 ([3]; two lots of RZB-14): greater
BET surface area of the material tested [2]: about 33.9 m^2/g

lanthanum oxycarbonate [RZB-012, reference compound]
phosphate binding at a pH of 3 or below [4]: about the same
amount of phosphate bound in 60 minutes [4]: about 118 mg PO4 bound per gram of compound
pore diameter comparison [3]: not much difference in the values of pore diameter
BET surface area of the material tested [2]: 6-7 m^2/g

lanthanum tricarbonate tetrahydrate
percent of the available phosphate bound [5]: about 40%
